We go through 96 compounds from ChEMBL document CHEMBL3507680, “University of Dundee, Gates Library screen for HepG2 cell viability”.

The nature of this series: Human HepG2 cell viability assay in 384 well format. It is filed as toxicity, cell-based. Also on record: dose 125 nL, time 70.5 hour; concentration not given beside the values. The note with it: HepG2 cells, read-out: Inhibition.

In the case of `COc1ccc(CC(C)Nc2cccc(F)c2)cc1` (stereo unspecified), the cytotoxicity at 70.5 h is -1.11%.

Consider `Cc1csc(CN(C)C(=O)C2CCC(=O)N(CCN(C)C)C2)n1` (stereo unspecified), for which the cytotoxicity at 70.5 h is -3.99%.

On to `CN1CC(=O)N(c2cccc(F)c2)CC12CCNC2` (stereo unspecified), for which the cytotoxicity at 70.5 h amounted to 1.26%.

For `Cc1nc(C)c2c(n1)CCN(C(=O)CC1CC1)CC2`, the cytotoxicity at 70.5 h was -6.2%.

For `CC(=O)NCC(=O)N1Cc2nccn2CC(Cn2cccn2)C1` (stereo unspecified), the cytotoxicity at 70.5 h was -4.71%.

As to `Cc1noc([C@H]2C[C@@H]3CCN(C(=O)N(C)C)C[C@H]3O2)n1`, the cytotoxicity at 70.5 h was -4.62%.

For `CN1C(=O)C2(CCN(CCO)C2)c2ccccc21` (stereo unspecified), the cytotoxicity at 70.5 h was -5.56%.

In the case of `Cc1cc(CN2C[C@@H]3COC[C@]3(CNC(=O)c3ccno3)C2)no1`, the cytotoxicity at 70.5 h is -4.13%.

In the case of `Cn1ccc(C(=O)NC2CCC23CCN(C(=O)N2CCCC2)CC3)c1` (stereo unspecified), the cytotoxicity at 70.5 h is -1.08%.

On to `CCS(=O)(=O)N1CCC2(CCC2NC(=O)c2ccn(C)c2)CC1` (stereo unspecified), for which the cytotoxicity at 70.5 h is -7.91%.

Consider `O=C(NCC1CC1)[C@H]1C[C@H]2OCC[C@H]2N(Cc2ccoc2)C1`, for which the cytotoxicity at 70.5 h is 22.9%.

Turning to `O=C(NCC1CC1)[C@H]1C[C@@H]2CN(S(=O)(=O)Cc3ccccc3)C[C@H]1O2`, the cytotoxicity at 70.5 h stood at 18.9%.

For the compound `O=C(c1cscn1)N1CCN2C[C@H](OCc3cccnc3)C[C@H]2C1`, the cytotoxicity at 70.5 h was found to be 20%.

Take `CN(C)CCN1CC(C(=O)NCc2ccc(C#N)cc2)CC1=O` (stereo unspecified): the cytotoxicity at 70.5 h was -1.01%.

Regarding `CCN(C)Cc1nc(-c2ccccc2NS(C)(=O)=O)oc1C`, the cytotoxicity at 70.5 h was -10.5%.

Turning to `Cc1ccccc1-n1cc(CNC(=O)CC2C(=O)NCCN2C)cn1` (stereo unspecified), the cytotoxicity at 70.5 h is -1.91%.

For `O=C(c1cn(Cc2ccc(Cl)cc2)nn1)N1CCCO1`, the cytotoxicity at 70.5 h is -10.9%.

For `c1ccc(-c2nc3c(c(NCc4n[nH]c5c4CCC5)n2)CCNC3)cc1`, the cytotoxicity at 70.5 h turned out to be 12.6%.

For the compound `Cc1cc(NCCc2c[nH]cn2)nc(-c2cccnc2)n1`, the cytotoxicity at 70.5 h was -6.06%.

Take `CC(=O)c1ccc(C(=O)NCc2cccnc2N2CCCC(O)C2)s1` (stereo unspecified): the cytotoxicity at 70.5 h is -14.1%.

On to `CC1(CCC(=O)N2CCC(n3cc(C4(O)CCCC4)nn3)CC2)CC1`, for which the cytotoxicity at 70.5 h was found to be 22.5%.

For `C[C@@H]1CN(C(=O)CCc2nncn2C)C[C@@]1(O)C1CCC1`, the cytotoxicity at 70.5 h was -2.96%.

`Cc1ccc(OC[C@@H]2CNC[C@H](C(=O)NCC3CCCO3)C2)cn1` (stereo partly specified): the cytotoxicity at 70.5 h is -1.9%.

For the compound `O=C(Cc1ccc2c(c1)OCO2)N[C@@H]1CCNC[C@H]1O`, the cytotoxicity at 70.5 h is -3.71%.

Consider `COc1ccc(-c2noc(Cn3cnc(C)c3)n2)c(OC)c1OC`, for which the cytotoxicity at 70.5 h was -0.844%.

`CC(C)=CCC1(C(=O)O)CCCN(c2ccnc(N)n2)C1` (stereo unspecified): the cytotoxicity at 70.5 h was 17%.

With `NCc1cc(NCC(c2ccccn2)N2CCOCC2)ncn1` (stereo unspecified), the cytotoxicity at 70.5 h is -6.83%.

For `CCn1cc(CN2CCC(C3CCN(C)CC3)CC2)cc1C#N`, the cytotoxicity at 70.5 h was -1.33%.

As to `OCC1CCCCN1Cc1nc(Cc2cccc(F)c2)no1` (stereo unspecified), the cytotoxicity at 70.5 h was -12.1%.

As for `CCn1cc(CN2C[C@H]3CC[C@@H]2CN(C(=O)c2cnccn2)C3)cn1`, the cytotoxicity at 70.5 h is -5.14%.

For the compound `Clc1ccc(-n2cnnc2CCCN2CCOCC2)cc1`, the cytotoxicity at 70.5 h was 1.11%.

For `CCn1c(C2CCCN(Cc3cc(F)ccc3OC)C2)nn(C)c1=O` (stereo unspecified), the cytotoxicity at 70.5 h was -9.41%.

As for `O=C1CC2(CCN(c3nccc(-c4cc(C(=O)O)ccn4)n3)CC2)CN1`, the cytotoxicity at 70.5 h was -8.17%.

For the compound `CC(C)=CCN1CCN(S(=O)(=O)c2cn(C)cn2)[C@H]2CS(=O)(=O)C[C@H]21`, the cytotoxicity at 70.5 h stood at 48.8%.

On to `Cc1nc(NCc2noc(C3CCCO3)n2)c2sccc2n1` (stereo unspecified), for which the cytotoxicity at 70.5 h came to 31.3%.

As for `Nc1ncccc1CN1CCOCC1CC(=O)NCc1ccccn1` (stereo unspecified), the cytotoxicity at 70.5 h was 19.3%.

As for `CC(C)N(C(=O)N1CCn2cncc2C1)C(C)C`, the cytotoxicity at 70.5 h came to 1.59%.

As to `O=C(O)c1cccc(C2CCCN(S(=O)(=O)C3CC3)C2)c1` (stereo unspecified), the cytotoxicity at 70.5 h is -10.8%.

As for `CCOc1ccccc1-n1c(CNC)n[nH]c1=O`, the cytotoxicity at 70.5 h was -2.54%.

Take `Cn1c(CCNC(=O)C2CCCN(C3CCOCC3)C2)n[nH]c1=O` (stereo unspecified): the cytotoxicity at 70.5 h was -1.23%.

Turning to `Cc1ccccc1CN1CCC(CNC(=O)Cn2cncn2)CC1`, the cytotoxicity at 70.5 h is 13.8%.

Take `O=C(CCCc1cn[nH]c1)N1C[C@H](CO)C[C@H](CN2CCCC2)C1`: the cytotoxicity at 70.5 h was -5.76%.

In the case of `CCC(=O)Nc1cccc(C(=O)NCCC2=CSC3=NCCCN23)c1`, the cytotoxicity at 70.5 h was -7.59%.

Take `Cc1nnc(CN(CCc2ccccc2)C2CCN(C)CC2)s1`: the cytotoxicity at 70.5 h is -13.6%.

Consider `O=C1O[C@@H]2CN(Cc3ccccc3F)C[C@@H]2N1CCCN1CCOCC1`, for which the cytotoxicity at 70.5 h was 8.16%.

As to `CCN1CCN(C[C@@H]2CN(c3ncccc3C(F)(F)F)C[C@@H]2CO)CC1`, the cytotoxicity at 70.5 h was -5.49%.

With `Cc1ccc(SCCCNC(=O)c2cn([C@H]3CC[C@@H](N)CC3)nn2)cc1`, the cytotoxicity at 70.5 h turned out to be 20.6%.

In the case of `CCc1nnc(NC(=O)c2ccc(C3CCCN3CC(C)C)s2)s1` (stereo unspecified), the cytotoxicity at 70.5 h was -2.96%.

Turning to `Cc1nc[nH]c1CN1C[C@@H]2CC[C@H](C1)N(C(=O)CCc1cccnc1)C2`, the cytotoxicity at 70.5 h is -11.7%.

For `c1ccc2c(c1)CN(c1ncnc3c1CCNC3)CCO2`, the cytotoxicity at 70.5 h is -5.38%.

Regarding `CCc1ccc(CN2CCN(CCOC)[C@@H]3CS(=O)(=O)C[C@@H]32)cc1`, the cytotoxicity at 70.5 h was found to be 1.39%.

On to `O=c1c2sccc2ncn1Cc1cc(C2CC2)[nH]n1`, for which the cytotoxicity at 70.5 h is -8.84%.

With `N#Cc1cccnc1N1CCCC(CO)(Cc2ccc(F)cc2)C1` (stereo unspecified), the cytotoxicity at 70.5 h is -5.86%.

`COc1ccnc(CN2CCCC(CCc3ccc(F)cc3)C2)c1OC` (stereo unspecified): the cytotoxicity at 70.5 h turned out to be 2.04%.

Take `COc1cccc(F)c1-c1nc2c([nH]1)c(C1CC1)nn2C`: the cytotoxicity at 70.5 h is 10.5%.

For the compound `CN(C)C[C@@H]1CN(C2CCN(c3ccccc3Cl)CC2)C[C@@H]1CO`, the cytotoxicity at 70.5 h is -14.4%.

Regarding `CSCC(=O)N1CCC(Oc2cccc(C)c2)CC1`, the cytotoxicity at 70.5 h was -7.4%.

As to `COc1ccccc1-c1ncc(CN2CCCC[C@H](N(C)C)C2)s1`, the cytotoxicity at 70.5 h was found to be 4.63%.

As to `O=S(=O)(NCCn1cc(C2CCCNC2)nn1)c1ccc(Cl)cc1` (stereo unspecified), the cytotoxicity at 70.5 h was -9.08%.

For the compound `C=C(C)COc1ccccc1C(=O)N1CCC2(CC1)CN(C)CCN2C`, the cytotoxicity at 70.5 h is -11.5%.

For the compound `O=C(O)CCc1cc2n(n1)CCCN(C(=O)c1ccc(Cl)s1)C2`, the cytotoxicity at 70.5 h is -22.4%.

Turning to `CCCn1ncc(C(=O)N2CCN(C3CCSCC3)CC2)c1C`, the cytotoxicity at 70.5 h stood at 2.68%.

For the compound `COC(=O)CNCC1(O)CCCN(Cc2cccc(F)c2F)C1=O` (stereo unspecified), the cytotoxicity at 70.5 h is -0.438%.

For `CC(C)n1cc(C(=O)N2CCC(n3cc(C(C)(C)C)nn3)CC2)cn1`, the cytotoxicity at 70.5 h is -12.1%.

As to `COc1c(C)cc(C(C(=O)O)N(C)Cc2ccn[nH]2)cc1C` (stereo unspecified), the cytotoxicity at 70.5 h was -3.26%.

`Cc1nc(CN(C)C(=O)c2cc(C)sc2NC(=O)C(C)(C)C)no1`: the cytotoxicity at 70.5 h is -11.2%.

Take `CC(C)SCC(=O)N1CCCn2nc(C(=O)Nc3ccccc3)cc2C1`: the cytotoxicity at 70.5 h was determined as 6.99%.

`COCCN(Cc1cnn(C)c1)C(=O)C1COc2c(cccc2OC)C1` (stereo unspecified): the cytotoxicity at 70.5 h is 0.35%.

With `Cc1cc(C)c2c(NCCC3(O)CCCC3)ncnc2n1`, the cytotoxicity at 70.5 h is -6.61%.

In the case of `CC1CCCN1Cc1cccc(C(=O)Nc2ccc3c(c2)CCC3=O)c1` (stereo unspecified), the cytotoxicity at 70.5 h was found to be 5.96%.

As for `Cc1ccnn1CC(=O)N1CCCN(C2Cc3ccccc3C2)CC1`, the cytotoxicity at 70.5 h was -14.5%.

Regarding `Cc1nn2cc(CCNC(=O)c3cc(C(C)C)nn3C)nc2s1`, the cytotoxicity at 70.5 h came out at 6.04%.

Take `COCCn1ccnc1C1CCCN(c2cnccn2)C1` (stereo unspecified): the cytotoxicity at 70.5 h worked out at 15.5%.

For the compound `CC(C)NS(=O)(=O)c1cc(C(=O)O)cc(-c2ccccc2CO)c1`, the cytotoxicity at 70.5 h is -3.6%.

As to `O=C(NCCCO)C1(N2CCCCC2)Cc2ccccc2C1`, the cytotoxicity at 70.5 h is -10.2%.

As to `CC(=O)c1ccc(C(=O)N(C)Cc2nc(-c3ccccn3)no2)s1`, the cytotoxicity at 70.5 h stood at 8.57%.

Turning to `Cc1ccc(Oc2ncccc2CNC(=O)C2COC(=O)N2)c(F)c1F` (stereo unspecified), the cytotoxicity at 70.5 h is -11.2%.

As for `CCc1[nH]c2c(CNC(=O)C3CCN(C)C3)cc(C)cc2c1C` (stereo unspecified), the cytotoxicity at 70.5 h was -8.68%.

`C=C(C)COc1ccc(C(=O)N(C)C(C)c2ccon2)cc1` (stereo unspecified): the cytotoxicity at 70.5 h was -9.63%.

As to `CN(Cc1cc2n(n1)CCCNC2)Cc1n[nH]c2c1CCC2`, the cytotoxicity at 70.5 h was -13.3%.

Regarding `O=C(NCc1csc(Cc2ccccc2)n1)C1NCCc2[nH]cnc21` (stereo unspecified), the cytotoxicity at 70.5 h is -2.44%.

In the case of `CN(Cc1cc2n(n1)CCCN(C(=O)N1CCCC1)C2)Cc1nccs1`, the cytotoxicity at 70.5 h was determined as 24.4%.

As for `O=C(Cc1ccncc1)N(CCO)CCSc1ccc(Cl)cc1`, the cytotoxicity at 70.5 h was -12.1%.

In the case of `Cc1cnnn1Cc1ncn2c1CN(Cc1cccs1)CCC2`, the cytotoxicity at 70.5 h came out at 4.51%.

As to `c1ccc(CN2CCc3ncnc(-c4ccsc4)c3CC2)nc1`, the cytotoxicity at 70.5 h is -12.4%.

For the compound `O=C1CC(c2cccnc2)C2(CCN(S(=O)(=O)C3CC3)CC2)N1` (stereo unspecified), the cytotoxicity at 70.5 h is -3.38%.

With `Cc1nc(CN2CCc3ncnc(C)c3CC2)cs1`, the cytotoxicity at 70.5 h was -6.23%.

With `Cn1cc(-c2cnc(N3CCOCC3)nc2)cc1C(=O)NCCO`, the cytotoxicity at 70.5 h was -6.33%.

Turning to `CC(C)N(C)Cc1cnc2n1CCN(C(=O)NC1CCCC1)C2`, the cytotoxicity at 70.5 h is -9.47%.

For `COCCN1C(=O)C[C@H]2[C@H]1CCN2Cc1cccc(C#N)c1`, the cytotoxicity at 70.5 h was -19.1%.

With `O=C(CC1CC1)NCc1cn2c(n1)CN(CC1CC1)CC2`, the cytotoxicity at 70.5 h is -19.5%.

Consider `O=C1[C@@H]2CCN(Cc3ccoc3)C[C@@H]2OCCN1c1ccccc1`, for which the cytotoxicity at 70.5 h was -10.9%.

Take `CCN1C[C@@H]2[C@@H](OC)CCN(S(=O)(=O)c3ccccc3F)[C@@H]2C1`: the cytotoxicity at 70.5 h was -9.34%.

For `Cc1ncccc1NC(=O)[C@H]1C[C@@H]2CCN(Cc3nccs3)C[C@@H]2O1`, the cytotoxicity at 70.5 h was -2.41%.

In the case of `COc1ccc(CN2C[C@@H]3OCCN(c4ncccn4)[C@@H]3C2)cc1`, the cytotoxicity at 70.5 h was -7.28%.

Take `Cc1cccc(CN2C(=O)CC[C@@H]3[C@H]2CCN3Cc2ccc(C)s2)n1`: the cytotoxicity at 70.5 h was -18.1%.
